Measurements published in PubChem BioAssay (NCI).
Several values for one entry are separate records, joined by “and”; a condition that tells them apart may be missing. Equal values may be shown once.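 Grown in 96-well plates, cells were treated for 48 hours with each compound at five concentrations. Insufficient inhibition: endpoint recorded as highest concentration tested. GI50 marks 50% less growth. The concentration for full growth arrest is given as TGI.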

Legend:
Assay in all cases: growth of human tumour cells (NCI), 48 h
[1] = system: 786-0 renal
[2] = system: CCRF-CEM leukemia
[3] = system: EKVX NSCLC
[4] = system: HCT-15 colon
[5] = system: LOX IMVI melanoma
[6] = system: MCF7 breast
[7] = system: NCI-H23 lung
[8] = system: SK-OV-3 ovarian
[9] = system: SN12C renal
[10] = system: SNB-19 CNS

CNc1cc(-c2cccc(OC(F)(F)F)c2)nc2ccc(N3CCCC3)cc12
GI50 [1]: 1.56 µM and 1.71 µM and 1.55 µM | TGI [1]: 2.91 µM and 3.22 µM and 2.97 µM | GI50 [2]: 2.02 µM and 1.96 µM and 1.76 µM | TGI [2]: 4.52 µM and 4.49 µM and 4.01 µM | GI50 [3]: 1.64 µM and 1.57 µM and 1.74 µM | TGI [3]: 3.43 µM and 3.06 µM and 3.42 µM | GI50 [4]: 0.86 µM and 1.16 µM and 1.3 µM | TGI [4]: 2.35 µM and 2.54 µM and 2.8 µM | GI50 [5]: 1.71 µM and 1.74 µM | TGI [5]: 3.24 µM and 3.28 µM and 3.23 µM | GI50 [6]: 1.22 µM and 1.65 µM and 1.75 µM | TGI [6]: 2.88 µM and 3.32 µM and 3.62 µM | GI50 [7]: 1.8 µM and 1.94 µM and 1.74 µM | TGI [7]: 3.67 µM and 3.62 µM and 3.32 µM | GI50 [8]: 1.66 µM and 1.67 µM and 1.74 µM | TGI [8]: 3.04 µM and 3.03 µM and 3.14 µM | GI50 [9]: 1.76 µM and 1.68 µM and 1.71 µM | TGI [9]: 3.36 µM and 3.14 µM and 3.26 µM | GI50 [10]: 1.9 µM and 1.81 µM and 1.88 µM | TGI [10]: 3.57 µM and 3.22 µM and 3.36 µM

CSc1nc2c(c(=O)n1C)C(c1ccccc1)C1=C(N2)/C(=C/c2ccccc2)CCC1 (stereo not given)
GI50 [1]: 11.7 µM | TGI [1]: 56.4 µM | GI50 [2]: 4.62 µM | TGI [2]: > 100 µM | GI50 [3]: 24.2 µM | TGI [3]: > 100 µM | GI50 [4]: 4.1 µM | TGI [4]: > 100 µM | GI50 [5]: 3.01 µM | TGI [5]: 12.8 µM | GI50 [6]: 7.72 µM | TGI [6]: > 100 µM | GI50 [7]: 7.1 µM | TGI [7]: > 100 µM | GI50 [8]: 25.1 µM | TGI [8]: 78.7 µM | GI50 [9]: 53 µM | TGI [9]: > 100 µM | GI50 [10]: 22.4 µM | TGI [10]: > 100 µM

Cc1c(-c2ccccn2)ccc2ccccc12
TGI [1]: > 100 µM | TGI [2]: > 100 µM | TGI [3]: > 100 µM | TGI [4]: > 100 µM | TGI [5]: > 100 µM | TGI [6]: > 100 µM | TGI [7]: > 100 µM | TGI [8]: > 100 µM | TGI [9]: > 100 µM | TGI [10]: > 100 µM

CC/C=C\C[C@H]1C/C=C2/C(=O)C(Cl)=C[C@@H]2C/C=C\CCCC(=O)O1
GI50 [1]: 0.521 µM | TGI [1]: 1.19 µM | GI50 [2]: 0.143 µM | TGI [2]: 2.64 µM | GI50 [3]: 0.805 µM | TGI [3]: 4.62 µM | GI50 [4]: 0.109 µM | TGI [4]: 0.72 µM | GI50 [5]: 0.159 µM | TGI [5]: 0.52 µM | GI50 [6]: 0.0836 µM | TGI [6]: 2.61 µM | GI50 [7]: 0.459 µM | TGI [7]: 1.22 µM | GI50 [8]: 1.04 µM | TGI [8]: 3.49 µM | GI50 [9]: 0.575 µM | TGI [9]: 2.57 µM | GI50 [10]: 0.665 µM | TGI [10]: 3.54 µM

COc1ccc2c(c1)-c1c(c3cc(OC)ccc3n(CCN(C)C)c1=O)C2=O
GI50 [1]: 2.35 µM | TGI [1]: 9.42 µM | GI50 [2]: 0.199 µM | TGI [2]: 1.76 µM | GI50 [3]: 1.37 µM | TGI [3]: 10.2 µM | GI50 [4]: 0.629 µM | TGI [4]: 13.1 µM | GI50 [5]: 0.658 µM | TGI [5]: 1.85 µM | GI50 [6]: 0.221 µM | TGI [6]: 5.3 µM | GI50 [7]: 1.59 µM | TGI [7]: 8.82 µM | GI50 [8]: 1.73 µM | TGI [8]: 8.77 µM | GI50 [9]: 0.32 µM | TGI [9]: 6.16 µM | GI50 [10]: 0.812 µM | TGI [10]: 7.18 µM

CCS(=O)(=O)c1ccc(OC)c(Nc2ncc(-c3cccc(F)c3)o2)c1
GI50 [1]: > 25 µM | TGI [1]: > 25 µM | GI50 [2]: > 25 µM | TGI [2]: > 25 µM | GI50 [3]: > 25 µM | TGI [3]: > 25 µM | GI50 [4]: > 25 µM | TGI [4]: > 25 µM | GI50 [5]: > 25 µM | TGI [5]: > 25 µM | GI50 [6]: > 25 µM | TGI [6]: > 25 µM | GI50 [7]: > 25 µM | TGI [7]: > 25 µM | GI50 [8]: > 25 µM | TGI [8]: > 25 µM | GI50 [9]: > 25 µM | TGI [9]: > 25 µM | GI50 [10]: > 25 µM | TGI [10]: > 25 µM

CN1CCN(c2ccc(NC3=CC(=O)c4ncncc4C3=O)cc2)CC1
GI50 [1]: 0.248 µM | TGI [1]: 0.645 µM | GI50 [2]: 0.331 µM | TGI [2]: > 100 µM | GI50 [3]: 0.56 µM | TGI [3]: 2.15 µM | GI50 [4]: 0.343 µM | TGI [4]: 1.44 µM | GI50 [5]: 0.192 µM | TGI [5]: 0.401 µM | GI50 [6]: 0.186 µM | TGI [6]: 0.405 µM | GI50 [7]: 0.369 µM | TGI [7]: 1.67 µM | GI50 [8]: 1.63 µM | TGI [8]: 3.16 µM | GI50 [9]: 0.326 µM | TGI [9]: 0.969 µM | GI50 [10]: 1.52 µM | TGI [10]: 2.93 µM

O=C(NCCNCCO)c1ccc(Nc2nc3ccccc3c3occc23)cc1
GI50 [1]: 13.7 µM | TGI [1]: 27.5 µM | GI50 [2]: 3.05 µM | TGI [2]: 14.3 µM | GI50 [3]: 13.9 µM | TGI [3]: 32 µM | GI50 [4]: 16.7 µM | TGI [4]: 31.2 µM | GI50 [5]: 8.45 µM | TGI [5]: 22.2 µM | GI50 [6]: 28 µM | TGI [6]: > 100 µM | GI50 [7]: 12.8 µM | TGI [7]: 26.4 µM | GI50 [8]: 15.4 µM | TGI [8]: 36.5 µM | GI50 [9]: 11.9 µM | TGI [9]: 24.6 µM | GI50 [10]: 18.5 µM | TGI [10]: 49.5 µM
